Data from PMC3865070 (Neuropharmacology, 2013).
Read-outs that look alike come from different tables or passages of the source. One block for each compound: values may come before it.

Experiments:
Assay type in all cases: cell-based
GluN1/N2A [1] = biological target: GluN1/N2A (Rattus norvegicus, UniProt P35439+Q00959); assay: Two-electrode voltage-clamp recordings, Xenopus oocytes expressing GluN1/N2A
GluN1(F484A/T518L)/N3A = GluN1(F484A/T518L)/N3A (Rattus norvegicus, UniProt Q9R1M7); assay: Two-electrode voltage-clamp recordings, Xenopus oocytes expressing GluN1; details: for voltage dependence of inhibition: current-voltage relationship, inhibition at −60 mV and +30 mV; for Hill coefficient (nH): inhibition
GluN1(F484A/T518L)/N3B = GluN1(F484A/T518L)/N3B (Rattus norvegicus, UniProt Q8VHN2); assay: as above; details: for Hill coefficient (nH): inhibition
GluN1/N2B [2] = biological target: GluN1/N2B (Rattus norvegicus, UniProt P35439+Q00960); assay: Two-electrode voltage-clamp recordings, Xenopus oocytes expressing GluN1/N2B
GluN1/N2C [3] = biological target: GluN1/N2C (Rattus norvegicus, UniProt P35439+Q00961); assay: Two-electrode voltage-clamp recordings, Xenopus oocytes expressing GluN1/N2C
GluN1/N2D [4] = biological target: GluN1/N2D (Rattus norvegicus, UniProt P35439+Q62645); assay: Two-electrode voltage-clamp recordings, Xenopus oocytes expressing GluN1/N2D
GluA1 = GluA1 (Rattus norvegicus, UniProt P19490); assay: Two-electrode voltage-clamp recordings, Xenopus oocytes expressing GluA1
GluK2 = GluK2 (Rattus norvegicus, UniProt P42260); assay: Two-electrode voltage-clamp recordings, Xenopus oocytes expressing GluK2
[5] = biological target: wild-type GluN1/N3B receptors (Rattus norvegicus, UniProt P35439+Q8VHN2)
GluN1/N2A [6] = biological target: GluN1/N2A (Rattus norvegicus, UniProt P35439); assay: Two-electrode voltage-clamp recordings, Xenopus oocytes expressing GluN1/N2A; details: co-applied with 100 μM glutamate and 0.5 μM glycine
GluN1(F484A)/N3A = GluN1(F484A)/N3A (Rattus norvegicus, UniProt P35439+Q9R1M7, F484A); assay: Two-electrode voltage-clamp recordings, Xenopus oocytes expressing GluN1; details: for Hill coefficient (nH): inhibition
GluN1(T518L)/N3A = GluN1(T518L)/N3A (Rattus norvegicus, UniProt P35439+Q9R1M7, T518L); assay: as above; details: for Hill coefficient (nH): inhibition
GluN1/N2C [7] = biological target: GluN1/N2C (Rattus norvegicus, UniProt P35439); assay: Two-electrode voltage-clamp recordings, Xenopus oocytes expressing GluN1/N2C; details: co-applied with 100 μM glutamate and 0.5 μM glycine
GluN1/N2D [8] = biological target: GluN1/N2D (Rattus norvegicus, UniProt P35439); assay: Two-electrode voltage-clamp recordings, Xenopus oocytes expressing GluN1/N2D; details: co-applied with 100 μM glutamate and 0.5 μM glycine
GluN1/N2B [9] = biological target: GluN1/N2B (Rattus norvegicus, UniProt P35439); assay: Two-electrode voltage-clamp recordings, Xenopus oocytes expressing GluN1/N2B; details: co-applied with 100 μM glutamate and 0.5 μM glycine
[10] = IC50, co-applied with 100 μM glycine, N.E., no significant effect at 300 μM
[11] = co-applied with 100 μM glycine, N.E., no significant effect at 300 μM
[12] = IC50, co-applied with 100 μM glutamate and 0.5 μM glycine
[13] = read-out: inhibition of current responses to 10 μM glycine

Sequence of wild-type GluN1/N3B receptors (Q8VHN2 25-1002, other chains not shown): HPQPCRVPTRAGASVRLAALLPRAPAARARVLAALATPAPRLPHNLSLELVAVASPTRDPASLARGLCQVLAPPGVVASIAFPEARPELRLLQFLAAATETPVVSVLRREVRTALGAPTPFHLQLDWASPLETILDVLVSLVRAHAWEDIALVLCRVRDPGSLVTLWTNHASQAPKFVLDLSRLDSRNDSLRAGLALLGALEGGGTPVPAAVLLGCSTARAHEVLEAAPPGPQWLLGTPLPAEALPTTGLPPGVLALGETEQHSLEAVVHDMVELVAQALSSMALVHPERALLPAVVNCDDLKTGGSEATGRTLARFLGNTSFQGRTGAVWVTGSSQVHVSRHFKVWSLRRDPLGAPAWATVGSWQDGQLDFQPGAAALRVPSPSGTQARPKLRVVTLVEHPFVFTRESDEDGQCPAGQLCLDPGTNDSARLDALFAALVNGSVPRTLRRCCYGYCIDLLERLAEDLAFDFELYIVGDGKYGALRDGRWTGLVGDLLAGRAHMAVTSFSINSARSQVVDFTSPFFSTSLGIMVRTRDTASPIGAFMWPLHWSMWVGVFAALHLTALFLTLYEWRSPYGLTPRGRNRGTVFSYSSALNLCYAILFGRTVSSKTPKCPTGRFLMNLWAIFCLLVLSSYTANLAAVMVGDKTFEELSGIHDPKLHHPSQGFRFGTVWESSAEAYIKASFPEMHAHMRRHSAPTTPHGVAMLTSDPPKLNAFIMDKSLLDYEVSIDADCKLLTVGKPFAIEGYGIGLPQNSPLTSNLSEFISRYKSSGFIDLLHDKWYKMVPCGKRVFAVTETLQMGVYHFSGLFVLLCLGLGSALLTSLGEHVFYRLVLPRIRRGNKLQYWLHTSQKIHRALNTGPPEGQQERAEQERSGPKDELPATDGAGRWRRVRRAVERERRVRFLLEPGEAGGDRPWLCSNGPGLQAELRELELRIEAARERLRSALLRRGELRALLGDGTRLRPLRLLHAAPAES
Sequence of GluN1(F484A/T518L)/N3B (Q8VHN2 25-1002, stated change not applied, other chains not shown): as the sequence (Q8VHN2 25-1002, other chains not shown) above
Sequence of GluN1(T518L)/N3A (Q9R1M7 24-1115 isoform Q9R1M7-2 limits assumed, stated change not applied, other chains not shown): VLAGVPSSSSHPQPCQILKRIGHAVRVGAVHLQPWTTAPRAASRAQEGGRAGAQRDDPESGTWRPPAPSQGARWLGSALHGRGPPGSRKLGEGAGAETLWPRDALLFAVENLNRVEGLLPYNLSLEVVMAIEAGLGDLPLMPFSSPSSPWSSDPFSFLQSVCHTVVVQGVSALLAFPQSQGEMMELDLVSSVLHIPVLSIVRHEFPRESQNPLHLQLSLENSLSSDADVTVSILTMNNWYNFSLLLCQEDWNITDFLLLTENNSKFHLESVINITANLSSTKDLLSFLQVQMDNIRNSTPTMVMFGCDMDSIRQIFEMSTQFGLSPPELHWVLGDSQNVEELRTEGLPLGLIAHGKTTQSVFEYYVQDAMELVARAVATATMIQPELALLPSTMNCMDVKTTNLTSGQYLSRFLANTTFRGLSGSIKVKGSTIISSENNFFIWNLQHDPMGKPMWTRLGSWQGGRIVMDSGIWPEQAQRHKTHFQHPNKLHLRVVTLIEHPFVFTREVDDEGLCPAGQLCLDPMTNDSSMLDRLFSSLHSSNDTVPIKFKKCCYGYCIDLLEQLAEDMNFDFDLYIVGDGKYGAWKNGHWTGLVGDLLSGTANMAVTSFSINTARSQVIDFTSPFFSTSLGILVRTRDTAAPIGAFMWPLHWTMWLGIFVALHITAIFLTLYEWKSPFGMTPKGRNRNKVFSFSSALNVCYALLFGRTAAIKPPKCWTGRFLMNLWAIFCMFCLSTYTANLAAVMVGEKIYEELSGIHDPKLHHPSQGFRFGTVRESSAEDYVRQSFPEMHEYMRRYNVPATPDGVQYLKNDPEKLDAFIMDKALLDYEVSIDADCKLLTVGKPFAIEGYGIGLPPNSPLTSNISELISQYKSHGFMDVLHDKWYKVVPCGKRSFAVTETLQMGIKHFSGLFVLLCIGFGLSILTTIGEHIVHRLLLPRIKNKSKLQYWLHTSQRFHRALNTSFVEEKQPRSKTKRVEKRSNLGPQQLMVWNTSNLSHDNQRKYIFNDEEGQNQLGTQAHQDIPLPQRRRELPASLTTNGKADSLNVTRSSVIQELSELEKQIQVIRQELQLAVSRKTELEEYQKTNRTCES
Sequence of GluN1(F484A/T518L)/N3A (Q9R1M7 24-1115 isoform Q9R1M7-2, other chains not shown): as the sequence (Q9R1M7 24-1115 isoform Q9R1M7-2 limits assumed, stated change not applied, other chains not shown) above
Sequence of GluN1(F484A)/N3A (Q9R1M7 24-1115 isoform Q9R1M7-2 limits assumed, stated change not applied, other chains not shown): as above
Sequence of GluA1 (P19490 19-907): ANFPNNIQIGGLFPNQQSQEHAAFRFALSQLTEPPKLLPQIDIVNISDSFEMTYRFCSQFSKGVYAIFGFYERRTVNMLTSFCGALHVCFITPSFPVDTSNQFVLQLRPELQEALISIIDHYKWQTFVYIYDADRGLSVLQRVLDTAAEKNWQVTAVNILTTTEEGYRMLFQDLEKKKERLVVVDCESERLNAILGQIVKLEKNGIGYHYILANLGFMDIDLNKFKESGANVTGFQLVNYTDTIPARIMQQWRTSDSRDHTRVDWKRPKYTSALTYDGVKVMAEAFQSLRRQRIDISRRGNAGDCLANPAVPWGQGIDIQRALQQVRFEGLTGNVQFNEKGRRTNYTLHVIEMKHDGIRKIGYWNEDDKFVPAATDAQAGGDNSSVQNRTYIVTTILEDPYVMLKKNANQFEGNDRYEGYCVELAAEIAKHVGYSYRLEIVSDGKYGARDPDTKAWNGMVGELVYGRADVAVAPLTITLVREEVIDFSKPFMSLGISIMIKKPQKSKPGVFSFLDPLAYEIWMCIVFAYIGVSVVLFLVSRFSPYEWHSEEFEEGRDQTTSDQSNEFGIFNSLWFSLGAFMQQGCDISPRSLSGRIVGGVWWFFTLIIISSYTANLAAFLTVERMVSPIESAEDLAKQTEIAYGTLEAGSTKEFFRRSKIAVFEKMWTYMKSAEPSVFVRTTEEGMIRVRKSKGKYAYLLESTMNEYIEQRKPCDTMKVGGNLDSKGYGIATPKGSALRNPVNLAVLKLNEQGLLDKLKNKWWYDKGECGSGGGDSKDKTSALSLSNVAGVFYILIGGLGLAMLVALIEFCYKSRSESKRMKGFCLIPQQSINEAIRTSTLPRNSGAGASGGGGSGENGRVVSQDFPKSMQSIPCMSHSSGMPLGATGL
Sequence of GluK2 (P42260 32-908): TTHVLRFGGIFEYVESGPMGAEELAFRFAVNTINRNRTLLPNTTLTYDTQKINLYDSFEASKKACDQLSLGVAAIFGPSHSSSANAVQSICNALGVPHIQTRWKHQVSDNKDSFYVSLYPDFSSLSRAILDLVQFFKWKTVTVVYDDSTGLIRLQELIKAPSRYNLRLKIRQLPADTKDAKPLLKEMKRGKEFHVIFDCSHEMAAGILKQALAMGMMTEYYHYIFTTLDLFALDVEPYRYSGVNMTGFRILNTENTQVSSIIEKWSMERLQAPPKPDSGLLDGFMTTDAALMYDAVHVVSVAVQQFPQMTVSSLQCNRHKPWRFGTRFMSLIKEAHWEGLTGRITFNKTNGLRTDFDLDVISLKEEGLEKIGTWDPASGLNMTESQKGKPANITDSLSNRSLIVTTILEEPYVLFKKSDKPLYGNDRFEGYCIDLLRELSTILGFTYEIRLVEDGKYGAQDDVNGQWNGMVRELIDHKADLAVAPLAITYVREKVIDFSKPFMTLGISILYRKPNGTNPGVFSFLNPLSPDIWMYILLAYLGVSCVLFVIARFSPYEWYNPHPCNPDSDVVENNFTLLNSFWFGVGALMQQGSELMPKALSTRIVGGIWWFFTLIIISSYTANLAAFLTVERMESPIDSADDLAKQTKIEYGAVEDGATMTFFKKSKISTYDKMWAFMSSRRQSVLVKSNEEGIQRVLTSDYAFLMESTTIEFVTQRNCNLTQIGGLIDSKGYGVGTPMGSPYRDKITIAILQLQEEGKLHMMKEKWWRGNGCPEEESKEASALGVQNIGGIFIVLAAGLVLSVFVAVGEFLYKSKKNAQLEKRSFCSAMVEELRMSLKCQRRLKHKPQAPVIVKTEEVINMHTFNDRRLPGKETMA

IC50 (GluN1/N2A [1]): > 300 µM
Ki (GluN1/N2A [1]): > 290 µM
IC50 (GluN1(F484A/T518L)/N3A; [10]): > 300 µM
IC50 (GluN1(F484A/T518L)/N3A; [11]): N.E.
IC50 (GluN1(F484A/T518L)/N3B): 79 µM
Ki (GluN1(F484A/T518L)/N3B): 39 µM
voltage dependence of inhibition (GluN1(F484A/T518L)/N3B; current-voltage relationship, inhibition at −60 mV and +30 mV): voltage-independent
Hill coefficient (nH) (GluN1(F484A/T518L)/N3B; co-applied with 100 μM glycine): −1.79
IC50 (GluN1/N2B [2]): > 300 µM
Ki (GluN1/N2B [2]): > 260 µM
IC50 (GluN1/N2C [3]): > 300 µM
Ki (GluN1/N2C [3]): > 260 µM
Ki (GluN1/N2D [4]): > 210 µM
IC50 (GluN1/N2D [4]; [12]): > 300 µM
IC50 (GluA1): > 300 µM
IC50 (GluK2): > 300 µM
inhibition at 100 µM [5, 13]: 65 ± 4.3%
SMILES: O=c1[nH]c2nonc2nc1O [TK80, 6-hydroxy-[1,2,5]oxadiazolo[3,4-b]pyrazin-5(4H)-one]

Hill coefficient (nH) (GluN1/N2A [6]; inhibition): −1.39
IC50 (GluN1/N2A [1]): 270 µM
IC50 (GluN1(F484A/T518L)/N3A; [10]): 14 µM
voltage dependence of inhibition (GluN1(F484A/T518L)/N3A): voltage-independent
Hill coefficient (nH) (GluN1(F484A/T518L)/N3A; co-applied with 100 μM glycine): −1.44
IC50 (GluN1(F484A/T518L)/N3A; pIC50 ± S.E.M., co-applied with 100 μM glycine): 15.8 µM
IC50 (GluN1(F484A/T518L)/N3B): 7.4 µM
Hill coefficient (nH) (GluN1(F484A/T518L)/N3B; co-applied with 100 μM glycine): −1.37
IC50 (GluN1(F484A)/N3A): 34 µM
Maximal inhibition (GluN1(F484A)/N3A; co-applied with 100 μM glycine): 100%
Hill coefficient (nH) (GluN1(F484A)/N3A; co-applied with 100 μM glycine): −1.16
IC50 (GluN1(T518L)/N3A): 9.8 µM
Maximal inhibition (GluN1(T518L)/N3A; co-applied with 50 μM glycine): 100%
Hill coefficient (nH) (GluN1(T518L)/N3A; co-applied with 50 μM glycine): −1.50
IC50 (GluN1/N2B [2]): > 300 µM
Hill coefficient (nH) (GluN1/N2C [7]; inhibition): −1.77
IC50 (GluN1/N2C [3]): 120 µM
Hill coefficient (nH) (GluN1/N2D [8]; inhibition): −1.83
IC50 (GluN1/N2D [4]; [12]): 90 µM
IC50 (GluN1/N2D [4]; pIC50 ± S.E.M., co-applied with 100 μM glutamate and 0.5 μM glycine): 79.4 µM
inhibition at 30 µM [5, 13]: 70 ± 4%
SMILES: O=C(O)c1cc(C(=O)c2ccc(Cl)cc2Cl)c[nH]1 [TK30, 4-(2,4-dichlorobenzoyl)-1H-pyrrole-2-carboxylic acid]

SMILES: O=C(O)c1cc(Nc2nc(-c3cccnc3)cs2)ccc1O [TK13]
IC50 (GluN1/N2A [6]): > 300 µM
pIC50 ± S.E.M. (GluN1(F484A/T518L)/N3A; co-applied with 100 μM glycine): 4.2 ± 0.06
IC50 (GluN1(F484A/T518L)/N3A; [11]): 67 µM
voltage dependence of inhibition (GluN1(F484A/T518L)/N3A): voltage-independent
Hill coefficient (nH) (GluN1(F484A/T518L)/N3A; co-applied with 100 μM glycine): −1.04
IC50 (GluN1(F484A/T518L)/N3B; co-applied with 100 μM glycine): 49 µM
pIC50 ± S.E.M. (GluN1(F484A/T518L)/N3B; co-applied with 100 μM glycine): 4.3 ± 0.03
Hill coefficient (nH) (GluN1(F484A/T518L)/N3B; co-applied with 100 μM glycine): −0.77
IC50 (GluN1(F484A)/N3A; co-applied with 100 μM glycine): 93 µM
Maximal inhibition (GluN1(F484A)/N3A; co-applied with 100 μM glycine): 100%
pIC50 ± S.E.M. (GluN1(F484A)/N3A; co-applied with 100 μM glycine): 4.0 ± 0.03
Hill coefficient (nH) (GluN1(F484A)/N3A; co-applied with 100 μM glycine): −1.04
IC50 (GluN1(T518L)/N3A; co-applied with 50 μM glycine): 100 µM
Maximal inhibition (GluN1(T518L)/N3A; co-applied with 50 μM glycine): 100%
pIC50 ± S.E.M. (GluN1(T518L)/N3A; co-applied with 50 μM glycine): 4.0 ± 0.05
Hill coefficient (nH) (GluN1(T518L)/N3A; co-applied with 50 μM glycine): −1.02
IC50 (GluN1/N2B [9]): > 300 µM
IC50 (GluN1/N2C [7]): > 300 µM
IC50 (GluN1/N2D [8]): > 300 µM
IC50 (GluA1; co-applied with 30 μM glutamate): > 300 µM
IC50 (GluK2; co-applied with 30 μM glutamate, oocytes incubated 5 min in 10 μM concanavalin A): > 300 µM
inhibition of current responses to 10 μM glycine ([5]; 100 μM compound): 55 ± 3.1%
